Reference: ChEMBL document CHEMBL1201862, “PubChem BioAssay data set” (2004)
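Five concentrations, 48 hours, 96-well plates. GI50 is the concentration that inhibits growth by half.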 Calls of active or inactive are those of the source. Rule as the data show it: active = GI50 up to about 1.1 µM and inactive = higher.

Key:
Test in all cases: NCI-60 cell line screen, 48 h
A498 = tested on: A498
CCRF-CEM = tested on: CCRF-CEM
DU-145 = tested on: DU-145
K562 = tested on: K562
KM12 = tested on: KM12
M14 = tested on: M14
MDA-MB-435 = tested on: MDA-MB-435
MDA-N = tested on: MDA-N
NCI-H522 = tested on: NCI-H522
OVCAR-3 = tested on: OVCAR-3
SF-268 = tested on: SF-268
SF-295 = tested on: SF-295
SK-MEL-2 = tested on: SK-MEL-2
SNB-19 = tested on: SNB-19
SNB-75 = tested on: SNB-75
SR = tested on: SR
TK-10 = tested on: TK-10
U-251 = tested on: U-251
UO-31 = tested on: UO-31
MDA-MB-231 = tested on: MDA-MB-231

Structure (SMILES)	GI50 (A498)	GI50 (CCRF-CEM)	GI50 (DU-145)	GI50 (K562)	GI50 (KM12)	GI50 (M14)	GI50 (MDA-MB-435)	GI50 (MDA-N)	GI50 (NCI-H522)	GI50 (OVCAR-3)	GI50 (SF-268)	GI50 (SF-295)	GI50 (SK-MEL-2)	GI50 (SNB-19)	GI50 (SNB-75)	GI50 (SR)	GI50 (TK-10)	GI50 (U-251)	GI50 (UO-31)	GI50 (MDA-MB-231)
O=C1N=C(Nc2ccccc2Cl)N/C1=C\c1ccc(Cl)cc1Cl	33.1 µM (inactive)	29.5 µM (inactive)	33.3 µM (inactive)	9.46 µM (inactive)	45.6 µM (inactive)	72.6 µM (inactive)	5.96 µM (inactive)	8.11 µM (inactive)	11.9 µM (inactive)	66.1 µM (inactive)	> 100 µM (inactive)	60.8 µM (inactive)	18.9 µM (inactive)	> 100 µM (inactive)	29.9 µM (inactive)	5.3 µM (inactive)	> 100 µM (inactive)	33.9 µM (inactive)	> 100 µM (inactive)	–
CN(C)CCn1c(=O)c2ccc3c4c(nn3CCN(C)C)c3cc(O)ccc3n(c1=O)c24	0.198 µM (active)	< 0.032 µM (active)	–	0.0459 µM (active)	0.161 µM (active)	0.397 µM (active)	0.134 µM (active)	0.181 µM (active)	< 0.01 µM (active)	0.114 µM (active)	–	0.0136 µM (active)	0.131 µM (active)	–	0.059 µM (active)	< 0.01 µM (active)	0.117 µM (active)	< 0.0348 µM (active)	0.0927 µM (active)	0.0536 µM (active)
COC(=O)c1c[nH]c2c1-c1cc(C(=O)OCc3ccccc3)n(S(=O)(=O)c3ccc(C)cc3)c1C(=O)C2=O	1.85 µM (inactive)	0.346 µM (active)	0.154 µM (active)	4.99 µM (inactive)	0.25 µM (active)	0.155 µM (active)	0.0318 µM (active)	–	0.207 µM (active)	0.0316 µM (active)	0.234 µM (active)	0.17 µM (active)	0.195 µM (active)	0.193 µM (active)	0.189 µM (active)	0.262 µM (active)	2 µM (inactive)	0.317 µM (active)	0.327 µM (active)	0.0481 µM (active)
NCCc1ccc2c(c1)C(=O)c1c(O)ccc(O)c1C2=O	> 58.1 µM (inactive)	3.36 µM (inactive)	> 19.8 µM (inactive)	3.94 µM (inactive)	4.72 µM (inactive)	3.08 µM (inactive)	–	2.82 µM (inactive)	–	1.69 µM (inactive)	4.13 µM (inactive)	4.62 µM (inactive)	6.55 µM (inactive)	4.72 µM (inactive)	4.57 µM (inactive)	3.43 µM (inactive)	> 100 µM (inactive)	3.64 µM (inactive)	4.65 µM (inactive)	4.51 µM (inactive)
Cc1ccc(N/C(SCc2ccccc2)=C(\C(Cl)=C(Cl)Cl)[N+](=O)[O-])c(C)c1	22.2 µM (inactive)	31 µM (inactive)	6.31 µM (inactive)	–	17.2 µM (inactive)	16.9 µM (inactive)	7.21 µM (inactive)	22.2 µM (inactive)	–	8.26 µM (inactive)	14.3 µM (inactive)	23.7 µM (inactive)	39.6 µM (inactive)	30.4 µM (inactive)	29.2 µM (inactive)	–	–	15.6 µM (inactive)	20 µM (inactive)	14.6 µM (inactive)
C#CCCCC(=C)C[C@@H]1OC(=O)[C@H](C)[C@@H]1O	> 100 µM (inactive)	> 100 µM (inactive)	> 100 µM (inactive)	> 100 µM (inactive)	> 100 µM (inactive)	> 100 µM (inactive)	> 100 µM (inactive)	> 100 µM (inactive)	–	> 100 µM (inactive)	–	> 100 µM (inactive)	> 100 µM (inactive)	> 100 µM (inactive)	> 100 µM (inactive)	–	–	> 100 µM (inactive)	> 100 µM (inactive)	–
C#CCOCn1cc(C)c(=O)[nH]c1=O	> 100 µM (inactive)	> 100 µM (inactive)	> 100 µM (inactive)	> 100 µM (inactive)	> 100 µM (inactive)	> 100 µM (inactive)	–	> 100 µM (inactive)	–	–	> 100 µM (inactive)	> 100 µM (inactive)	> 100 µM (inactive)	> 100 µM (inactive)	> 100 µM (inactive)	> 100 µM (inactive)	> 100 µM (inactive)	> 100 µM (inactive)	> 100 µM (inactive)	> 100 µM (inactive)
O=Cc1ccc(-c2ccc(-c3ccc(CO)s3)o2)s1	0.104 µM (active)	1.58 µM (inactive)	11.5 µM (inactive)	1.43 µM (inactive)	42.6 µM (inactive)	20.4 µM (inactive)	8.32 µM (inactive)	–	15.7 µM (inactive)	0.372 µM (active)	18.6 µM (inactive)	14.5 µM (inactive)	35.7 µM (inactive)	32 µM (inactive)	20.2 µM (inactive)	0.239 µM (active)	0.237 µM (active)	1.91 µM (inactive)	15.6 µM (inactive)	22 µM (inactive)
